“And” between values parts separate entries of the source, which are not always exact repeats. Identical values can stand only once. Toxic doses and inconclusive results are not listed.
System: BDF1 mice, B16 melanoma ip, median survival T/C
Experiment: NCI In Vivo Anticancer Drug Screen. Data for tumor model B16 Melanoma (intraperitoneal) in B6D2F1 (BDF1) mice
Details: endpoint: median survival time, higher = longer survival
Method in brief: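 In this screen, activity was judged from survival or tumor size in treated versus vehicle-treated tumor-bearing mice, reported as T/C.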

[1] = dose: 6.25 mg/kg/injection, schedule: Q01DX009 (ip), vehicle: Klucel (hydroxypropylcellulose) (HPC)
[2] = dose: 12.5 mg/kg/injection, schedule: Q01DX009 (ip), vehicle: Klucel (hydroxypropylcellulose) (HPC)
[3] = dose: 12.5 mg/kg/injection, schedule: Q01DX009 (ip), vehicle: water
[4] = dose: 25.0 mg/kg/injection, schedule: Q01DX009 (ip), vehicle: water
[5] = dose: 50.0 mg/kg/injection, schedule: Q01DX009 (ip), vehicle: water
[6] = dose: 25.0 mg/kg/injection, schedule: Q01DX009 (ip), vehicle: saline with Tween-80
[7] = dose: 100.0 mg/kg/injection, schedule: Q01DX009 (ip), vehicle: saline with Tween-80
[8] = dose: 100.0 mg/kg/injection, schedule: Q01DX009 (ip), vehicle: saline
[9] = dose: 200.0 mg/kg/injection, schedule: Q01DX009 (ip), vehicle: saline with Tween-80
[10] = dose: 200.0 mg/kg/injection, schedule: Q01DX009 (ip), vehicle: saline
[11] = dose: 200.0 mg/kg/injection, schedule: Q04DX003 (ip), vehicle: saline
[12] = dose: 400.0 mg/kg/injection, schedule: Q04DX003 (ip), vehicle: saline
[13] = dose: 12.5 mg/kg/injection, schedule: Q01DX009 (ip), vehicle: saline with Tween-80
[14] = dose: 6.25 mg/kg/injection, schedule: Q01DX009 (ip), vehicle: saline with Tween-80
[15] = dose: 50.0 mg/kg/injection, schedule: Q01DX009 (ip), vehicle: Klucel (hydroxypropylcellulose) (HPC)
[16] = dose: 100.0 mg/kg/injection, schedule: Q01DX009 (ip), vehicle: Klucel (hydroxypropylcellulose) (HPC)
[17] = dose: 200.0 mg/kg/injection, schedule: Q01DX009 (ip), vehicle: Klucel (hydroxypropylcellulose) (HPC)
[18] = dose: 400.0 mg/kg/injection, schedule: Q01DX009 (ip), vehicle: Klucel (hydroxypropylcellulose) (HPC)
[19] = dose: 1.0 mg/kg/injection, schedule: Q01DX009 (ip), vehicle: Klucel (hydroxypropylcellulose) (HPC)
[20] = dose: 2.0 mg/kg/injection, schedule: Q01DX009 (ip), vehicle: Klucel (hydroxypropylcellulose) (HPC)
[21] = dose: 100.0 mg/kg/injection, schedule: Q04DX003 (ip), vehicle: Klucel (hydroxypropylcellulose) (HPC)
[22] = dose: 200.0 mg/kg/injection, schedule: Q04DX003 (ip), vehicle: Klucel (hydroxypropylcellulose) (HPC)
[23] = dose: 30.0 mg/kg/injection, schedule: Q01DX009 (ip), vehicle: saline
[24] = dose: 1.25 mg/kg/injection, schedule: Q01DX009 (ip), vehicle: saline
[25] = dose: 2.5 mg/kg/injection, schedule: Q01DX009 (ip), vehicle: saline

## O=C1C=C(C2OC(CO)C(O)C2O)C(=O)N1 (centres undefined)
[1]
  T/C: 107 % of control
[2]
  T/C: 99 % of control and 102 % of control

## CCCCn1ccnc1C
dose: 6.25 mg/kg/injection, schedule: Q01DX009 (ip), vehicle: water
  T/C: 106 % of control
[3]
  T/C: 91 % of control
[4]
  T/C: 101 % of control
[5]
  T/C: 102 % of control

## ClCCOCOCCCl
dose: 20.0 mg/kg/injection, schedule: Q04DX003 (ip), vehicle: Klucel (hydroxypropylcellulose) (HPC)
  T/C: 101 % of control
dose: 40.0 mg/kg/injection, schedule: Q04DX003 (ip), vehicle: Klucel (hydroxypropylcellulose) (HPC)
  T/C: 89 % of control
dose: 80.0 mg/kg/injection, schedule: Q04DX003 (ip), vehicle: Klucel (hydroxypropylcellulose) (HPC)
  T/C: 102 % of control

## CCC(C)(CC)OC(N)=O
[6]
  T/C: 112 % of control
dose: 25.0 mg/kg/injection, schedule: Q01DX009 (ip), vehicle: saline
  T/C: 95 % of control
dose: 50.0 mg/kg/injection, schedule: Q01DX009 (ip), vehicle: saline with Tween-80
  T/C: 112 % of control
dose: 50.0 mg/kg/injection, schedule: Q01DX009 (ip), vehicle: saline
  T/C: 95 % of control
[7]
  T/C: 105 % of control
[8]
  T/C: 100 % of control
[9]
  T/C: 104 % of control
[10]
  T/C: 95 % of control

## CCCCCCCCCCCCCCCCCCOCCCCCCCCCCCCCCCCCC
[7]
  T/C: 90 % of control
dose: 400.0 mg/kg/injection, schedule: Q01DX009 (ip), vehicle: saline with Tween-80
  T/C: 88 % of control

## CC(CNCCN)C[Si](C)(C)C (centres undefined)
dose: 12.5 mg/kg/injection, schedule: Q01DX009 (ip), vehicle: suspension in saline
  T/C: 99 % of control
dose: 25.0 mg/kg/injection, schedule: Q01DX009 (ip), vehicle: suspension in saline
  T/C: 96 % of control

## NC(=O)NOCC1NC(=O)C(CONC(N)=O)NC1=O (centres undefined)
[8]
  T/C: 98 % of control
[10]
  T/C: 94 % of control
[11]
  T/C: 102 % of control
dose: 400.0 mg/kg/injection, schedule: Q01DX009 (ip), vehicle: saline
  T/C: 97 % of control
[12]
  T/C: 94 % of control

## NNC(=O)NO
[13]
  T/C: 102 % of control
[6]
  T/C: 121 % of control

## COc1cc2c(c(OC)c1OC)-c1ccc(SC)c(=O)cc1[C@@H](NC1OC(CO)C(O)C(O)C1O)CC2 (some centres undefined)
[8]
  T/C: 120 % of control

## CC(C)=CC(=O)CC(O)(C(F)(F)F)C(F)(F)Cl (centres undefined)
[14]
  T/C: 97 % of control
dose: 6.25 mg/kg/injection, schedule: Q04DX003 (ip), vehicle: saline
  T/C: 100 % of control
[13]
  T/C: 90 % of control
dose: 12.5 mg/kg/injection, schedule: Q04DX003 (ip), vehicle: saline
  T/C: 89 % of control
[6]
  T/C: 92 % of control
dose: 25.0 mg/kg/injection, schedule: Q04DX003 (ip), vehicle: saline
  T/C: 89 % of control

## CCCCCCCCCCCCCCCCCCCCCC(=O)Nc1ccn(C2OC(CO)C(O)C2O)c(=O)n1 (centres undefined)
[14]
  T/C: 102 % of control
[13]
  T/C: 102 % of control
[6]
  T/C: 119 % of control
[9]
  T/C: 163 % of control

## COc1ccc(OC)c(/C=C/c2ccnc3ccccc23)c1
dose: 50.0 mg/kg/injection, schedule: Q01DX009 (ip), vehicle: saline sonified
  T/C: 113 % of control
dose: 100.0 mg/kg/injection, schedule: Q01DX009 (ip), vehicle: saline sonified
  T/C: 107 % of control
dose: 200.0 mg/kg/injection, schedule: Q01DX009 (ip), vehicle: saline sonified
  T/C: 113 % of control

## COc1cccc(CNc2cccc(Cl)c2Cl)c1OC
[2]
  T/C: 99 % of control
dose: 25.0 mg/kg/injection, schedule: Q01DX009 (ip), vehicle: Klucel (hydroxypropylcellulose) (HPC)
  T/C: 105 % of control
[15]
  T/C: 101 % of control
[16]
  T/C: 101 % of control
[17]
  T/C: 95 % of control
[18]
  T/C: 102 % of control

## COc1cc2ccc(CC(=O)NCc3ccccc3)cc2cc1OC
[7]
  T/C: 122 % of control
dose: 135.0 mg/kg/injection, schedule: Q01DX009 (ip), vehicle: Klucel (hydroxypropylcellulose) (HPC)
  T/C: 123 % of control
[17]
  T/C: 110 % of control

## COc1cc2c(c(OC)c1OC)-c1ccc(OC)c(=O)cc1[C@@H](NC(=O)c1ccccc1)CC2
[19]
  T/C: 173 % of control and 190 % of control
[20]
  T/C: 156 % of control and 161 % of control

## O=C(NC(CSC(=O)OCc1ccccc1)C(=O)Oc1ccc([N+](=O)[O-])cc1)OCc1ccccc1 (centres undefined)
[15]
  T/C: 105 % of control
[17]
  T/C: 100 % of control

## O=C1/C(=C/c2ccc([N+](=O)[O-])cc2)CCc2ccccc21
[3]
  T/C: 94 % of control
[4]
  T/C: 97 % of control
[5]
  T/C: 92 % of control
dose: 100.0 mg/kg/injection, schedule: Q01DX009 (ip), vehicle: water
  T/C: 92 % of control

## CCSc1nc2nccnc2c(=O)[nH]1
[16]
  T/C: 102 % of control
[17]
  T/C: 97 % of control

## COc1ccc(NC(=O)Oc2ccccc2Cc2ccccc2)cc1
[15]
  T/C: 96 % of control
dose: 50.0 mg/kg/injection, schedule: Q04DX003 (ip), vehicle: Klucel (hydroxypropylcellulose) (HPC)
  T/C: 96 % of control
[16]
  T/C: 93 % of control
[21]
  T/C: 96 % of control
[17]
  T/C: 100 % of control
[22]
  T/C: 93 % of control

## O=C1CC(c2ccc(OCN(CCCl)CCCl)cc2)CC(=O)C1CN(CCCl)CCCl (centres undefined)
dose: 0.5 mg/kg/injection, schedule: Q01DX009 (ip), vehicle: Klucel (hydroxypropylcellulose) (HPC)
  T/C: 97 % of control
[19]
  T/C: 100 % of control
[20]
  T/C: 100 % of control
dose: 4.0 mg/kg/injection, schedule: Q01DX009 (ip), vehicle: Klucel (hydroxypropylcellulose) (HPC)
  T/C: 99 % of control
dose: 8.0 mg/kg/injection, schedule: Q01DX009 (ip), vehicle: Klucel (hydroxypropylcellulose) (HPC)
  T/C: 104 % of control

## Cc1ccc(NC(=O)N(CCCl)N=O)cc1C
dose: 3.12 mg/kg/injection, schedule: Q01DX009 (ip), vehicle: Klucel (hydroxypropylcellulose) (HPC)
  T/C: 150 % of control
[1]
  T/C: 150 % of control

## COc1cc2c(cc1OC)/C(=C\C(=O)N1CCCC1=O)CCC2
[16]
  T/C: 97 % of control
[17]
  T/C: 100 % of control
[18]
  T/C: 117 % of control

## O=C(O)C1CC2C3CC(C(=O)O)C(C3)C2C1 (centres undefined)
dose: 100.0 mg/kg/injection, schedule: Q04DX003 (ip), vehicle: saline
  T/C: 108 % of control
[11]
  T/C: 104 % of control
[12]
  T/C: 105 % of control

## CNC(C)Cc1ccccc1 (centres undefined)
dose: 3.75 mg/kg/injection, schedule: Q01DX009 (ip), vehicle: saline
  T/C: 95 % of control
dose: 15.0 mg/kg/injection, schedule: Q01DX009 (ip), vehicle: saline
  T/C: 95 % of control
[23]
  T/C: 95 % of control

## C/C=C(\C)c1cc(=O)c2c(C)cc3c(c2o1)C(=O)c1c(O)c(C2CC(C)(N(C)C)C(OC(C)=O)C(C)O2)cc(C2CC(N(C)C)C(O)C(C)O2)c1C3=O (centres undefined)
dose: 0.16 mg/kg/injection, schedule: Q01DX009 (ip), vehicle: saline
  T/C: 103 % of control
dose: 0.31 mg/kg/injection, schedule: Q01DX009 (ip), vehicle: saline
  T/C: 103 % of control
dose: 0.62 mg/kg/injection, schedule: Q01DX009 (ip), vehicle: saline
  T/C: 102 % of control
[24]
  T/C: 91 % of control and 110 % of control
[25]
  T/C: 124 % of control

## CS(=O)(=O)OCCCNCCCOS(C)(=O)=O
[24]
  T/C: 103 % of control
[25]
  T/C: 110 % of control
dose: 5.0 mg/kg/injection, schedule: Q01DX009 (ip), vehicle: saline
  T/C: 123 % of control
dose: 10.0 mg/kg/injection, schedule: Q01DX009 (ip), vehicle: saline
  T/C: 159 % of control
dose: 20.0 mg/kg/injection, schedule: Q01DX009 (ip), vehicle: saline
  T/C: 161 % of control and 175 % of control and 202 % of control
[23]
  T/C: 189 % of control
dose: 40.0 mg/kg/injection, schedule: Q01DX009 (ip), vehicle: saline
  T/C: 201 % of control and 215 % of control and 271 % of control
dose: 60.0 mg/kg/injection, schedule: Q01DX009 (ip), vehicle: saline
  T/C: 228 % of control

## CCCc1c(C)[nH]c2ccccc12
[21]
  T/C: 94 % of control
[22]
  T/C: 100 % of control
dose: 400.0 mg/kg/injection, schedule: Q04DX003 (ip), vehicle: Klucel (hydroxypropylcellulose) (HPC)
  T/C: 88 % of control

Reference: PubChem BioAssay AID192 (DTP/NCI, 2004)
